# Experimental data reported in the NIST ThermoML archive (doi:10.1021/je800246v).
# Numbers after ± are expanded uncertainties.
# Experiment: activity coefficient (dimensionless); of the first substance listed, at infinite dilution; xn = mol fraction of the nth substance listed
# Conditions: 101 kPa, Liquid, Chromatography, x1 = 0
SMILES,activity coefficient (315.9 K),activity coefficient (325.3 K),activity coefficient (334.8 K),activity coefficient (306.6 K)
CCC(C)=O [butanone] + CCCCn1cc[n+](C)c1.F[P-](F)(F)(F)(F)F,0.987 ± 0.1,0.99 ± 0.1,0.983 ± 0.1,
"Cc1cccc(C)c1 [1,3-dimethylbenzene] + CCCCn1cc[n+](C)c1.F[P-](F)(F)(F)(F)F",2.38 ± 0.25,2.43 ± 0.26,2.36 ± 0.25,
CCO [ethanol] + CCCC[n+]1ccc(C)cc1.F[B-](F)(F)F,1.62 ± 0.17,1.49 ± 0.15,,1.7 ± 0.18
"CC(=O)CC(C)=O [2,4-pentanedione] + CCCCn1cc[n+](C)c1.F[P-](F)(F)(F)(F)F",1.15 ± 0.12,1.07 ± 0.11,1.03 ± 0.1,
Cc1ccccc1 [toluene] + CCCCn1cc[n+](C)c1.F[P-](F)(F)(F)(F)F,1.71 ± 0.18,1.59 ± 0.17,1.71 ± 0.18,
CC(C)O [propan-2-ol] + CCCCn1cc[n+](C)c1.F[P-](F)(F)(F)(F)F,3.65 ± 0.38,3.16 ± 0.33,2.85 ± 0.3,
CC(C)=O [acetone] + CCCCn1cc[n+](C)c1.F[P-](F)(F)(F)(F)F,0.707 ± 0.074,0.709 ± 0.074,0.699 ± 0.073,
CCC(C)=O [butanone] + CCCC[n+]1ccc(C)cc1.F[B-](F)(F)F,1.57 ± 0.16,1.59 ± 0.17,,1.53 ± 0.16
CO [methanol] + CCCCn1cc[n+](C)c1.F[P-](F)(F)(F)(F)F,2.16 ± 0.23,1.95 ± 0.2,1.81 ± 0.19,
"Cc1ccccc1C [1,2-dimethylbenzene] + CCCCn1cc[n+](C)c1.F[P-](F)(F)(F)(F)F",2.37 ± 0.25,2.21 ± 0.23,2.2 ± 0.23,
CO [methanol] + CCCC[n+]1ccc(C)cc1.F[B-](F)(F)F,0.98 ± 0.1,0.907 ± 0.093,,1.01 ± 0.1
CC(C)=O [acetone] + CCCC[n+]1ccc(C)cc1.F[B-](F)(F)F,1.01 ± 0.1,1.03 ± 0.1,,0.995 ± 0.1
"Cc1ccc(C)cc1 [1,4-dimethylbenzene] + CCCCn1cc[n+](C)c1.F[P-](F)(F)(F)(F)F",2.27 ± 0.24,2.24 ± 0.24,2.28 ± 0.24,

# Further lines, with some results ahead:
activity coefficient (315.9 K),activity coefficient (325.3 K),activity coefficient (334.8 K),SMILES,activity coefficient (306.6 K)
4.01 ± 0.42,3.46 ± 0.36,3.18 ± 0.33,CCCO [propan-1-ol] + CCCCn1cc[n+](C)c1.F[P-](F)(F)(F)(F)F,
3.02 ± 0.32,2.69 ± 0.28,2.47 ± 0.26,CCO [ethanol] + CCCCn1cc[n+](C)c1.F[P-](F)(F)(F)(F)F,
9.71 ± 1,8.01 ± 0.84,6.47 ± 0.68,CCCCCO [pentan-1-ol] + CCCCn1cc[n+](C)c1.F[P-](F)(F)(F)(F)F,
4.29 ± 0.45,3.78 ± 0.4,3.37 ± 0.35,CCC(C)O (stereo unspecified) [butan-2-ol] + CCCCn1cc[n+](C)c1.F[P-](F)(F)(F)(F)F,
5.66 ± 0.59,4.99 ± 0.52,4.38 ± 0.46,CCCC(C)O (stereo unspecified) [pentan-2-ol] + CCCCn1cc[n+](C)c1.F[P-](F)(F)(F)(F)F,
4.7 ± 0.49,4.14 ± 0.44,3.78 ± 0.4,CCC(O)CC [3-pentanol] + CCCCn1cc[n+](C)c1.F[P-](F)(F)(F)(F)F,
7.71 ± 0.81,6.34 ± 0.67,5.2 ± 0.55,CC(C)CCO [3-methylbutan-1-ol] + CCCCn1cc[n+](C)c1.F[P-](F)(F)(F)(F)F,
5.03 ± 0.53,4.38 ± 0.46,3.84 ± 0.4,CC(C)CO [2-methyl-1-propanol] + CCCCn1cc[n+](C)c1.F[P-](F)(F)(F)(F)F,
5.59 ± 0.59,4.77 ± 0.5,4.24 ± 0.45,CCCCO [butan-1-ol] + CCCCn1cc[n+](C)c1.F[P-](F)(F)(F)(F)F,
